Consider one molecule from patent US12655107B2 (The United States of America, as represented by the …, priority 2018, dated 2026).

The target in data set [1] is T1, Top1-DNA covalent cleavage complexes in HCT116 cells (Homo sapiens, UniProt P11387).
T1 construct: endogenous in cells; host or cells: HCT116 (human colon cancer)
The data set is described as follows: Immunocomplex of enzyme to DNA (ICE) assay. The class given is cell-based. Conditions: HCT116, 25, 50 and 100 μM.

The test system of data set [2] is γH2AX foci in HCT116 cells. The data set is described as follows: γH2AX detection by immunofluorescence. The class given is cell-based, human. Particulars: HCT116, 1 μM, 3 h. The method, then:
To evaluate the DNA damaging effect of 50 in cancer cells, γH2AX foci were assessed by immunofluorescence microscopy in human […] HCT116 cells. After incubation with the compounds for 3 h, the HCT116 cells were stained with γH2AX antibodies.
HCT116 cells (2×10^4 cells/mL) were grown in culture medium and treated with compounds for 3 h at 37° C. […] Cells were permeabilized with 0.5% Triton X-100 in PBS at 0° C. for 30 min. Dish was blocked with 5% goat serum/PBS at 37° C. for 3 h. […] The dishes were again washed six times with blocking buffer. Digital images were recorded using an LSM710 microscope (Zeiss, Germany) and analyzed with ZEN software.

The subject of a further data set is HCT116 cells. The data set is described as follows: Flow cytometry apoptosis assay. The class given is cell-based, human. Here is the method: To evaluate the induction of apoptosis by 50, flow cytometry assays were performed in HCT116 cells.
The stained cells were analyzed by using flow cytometry (BD, FACSCalibur, USA) within I h. The experiments were repeated three times independently.
For orientation: In flow cytometry, cells or beads pass a laser one at a time.

Another data set concerns MCF-7 xenograft. The data set is described as follows: In vivo antitumor activity, MCF-7 xenograft. On the set-up: species or system nude mice; tumor weight inhibitions (TWI): dose or concentration left out as unconfirmed.
For the next data set, the system named is HCT116 xenograft. The data set is described as follows: In vivo antitumor activity, HCT116 xenograft.
A short description of data set [3]: Pharmacokinetic study in rat. Particulars: SD rats. The method, then: The SD rats were divided into two groups (n=3) and treated by intravenous injection (i.v.) at 1 mg/kg dose and intragastrical administration (i.g.) at 5 mg/kg dose, respectively.
A pharmacokinetic (PK) study in vivo of 50 was performed in Sprague-Dawley (SD) rats. The SD rats were randomly divided into two groups […] and treated by intravenous injection (iv) at 1 mg/kg dose or an intragastrical administration (ig) at 5 mg/kg dose, respectively. Plasma samples were collected postdosing and the concentration of 50 was measured.
Plasma samples (100 μL) were obtained after centrifugation for 10 min at 3000 rpm and stored at −20° C. until used for analysis. The plasma was detected through LC-MS-MS.

T1 sequence (P11387 2-765 limits assumed, one chain of several): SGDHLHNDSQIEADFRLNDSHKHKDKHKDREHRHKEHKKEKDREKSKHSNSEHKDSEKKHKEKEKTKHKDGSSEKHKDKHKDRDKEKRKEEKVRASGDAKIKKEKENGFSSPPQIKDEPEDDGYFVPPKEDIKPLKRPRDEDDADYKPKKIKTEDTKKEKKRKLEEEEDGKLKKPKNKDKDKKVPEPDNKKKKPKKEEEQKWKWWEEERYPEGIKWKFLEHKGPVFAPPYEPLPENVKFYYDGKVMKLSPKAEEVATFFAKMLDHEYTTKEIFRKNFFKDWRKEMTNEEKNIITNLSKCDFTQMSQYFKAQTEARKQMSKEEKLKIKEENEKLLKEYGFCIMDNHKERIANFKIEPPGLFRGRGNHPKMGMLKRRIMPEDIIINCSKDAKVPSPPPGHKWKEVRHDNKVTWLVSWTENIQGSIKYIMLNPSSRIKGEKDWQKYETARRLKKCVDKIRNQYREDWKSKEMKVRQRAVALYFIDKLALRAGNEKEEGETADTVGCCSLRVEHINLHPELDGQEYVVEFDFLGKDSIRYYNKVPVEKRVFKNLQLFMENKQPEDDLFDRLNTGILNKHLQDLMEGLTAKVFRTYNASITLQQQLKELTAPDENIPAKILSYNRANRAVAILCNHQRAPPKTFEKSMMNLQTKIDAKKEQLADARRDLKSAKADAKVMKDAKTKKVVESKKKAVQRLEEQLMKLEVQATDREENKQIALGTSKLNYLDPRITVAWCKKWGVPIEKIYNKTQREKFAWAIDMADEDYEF

As usually defined, the Cmax is the maximum level reached in the sampled fluid or tissue. As a reminder, the Tmax is the time from dosing to the highest level. For `CNCCn1c(=O)c2cc(OC)c(OC)cc2c2ccc3cc4c(cc3c21)OCO4` [Compound 50, 2,3-dimethoxy-12-(2-(methylamino)ethyl)-[1,3]dioxolo[4′5′:4,5]benzo[1,2-c]phenanthridin-13(12H)-one], the “induction of cellular Top1cc” value in data set [1] is “induced the formation of cellular TOP1 cc in a dose-dependent manner”. For the same molecule, the γH2AX foci entry in data set [2] was “effectively induced γH2AX foci”. The molecule further displayed an early apoptotic cells with HCT116 cells (HCT116, 24 h, 2 μM) of 27.95%. The induction of apoptosis entry in the data set on HCT116 cells (HCT116, 24 h, 0.5, 1 and 2 μM) is “clearly induced HCT116 cells apoptosis in a dose-dependent manner”. In addition, the “tumor weight inhibitions (TWI)” value with MCF-7 xenograft (MCF-7 model, ip daily) is listed as 71.8%. The tumor volume result in the data set on MCF-7 xenograft (MCF-7 xenograft, 5, 10, 20 mg/kg ip daily) is recorded as “significantly reduced the tumor volume in a dose-dependent manner”. In addition, the “tumor weight inhibitions (TWI)” value in the data set with HCT116 xenograft (HCT116 model, 20 μM dose (so in the source), ip daily) was 76.9%. Besides, the tumor volume result in the data set with HCT116 xenograft (HCT116 xenograft, i.p. once every day) is given as “significantly reduced the tumor volume in a dose-dependent manner”. In addition, in data set [3] (i.g. 5 mg/kg), the “AUC0→t” value is 48.3 ± 28 ng·h/mL, the “Cmax” value worked out at 19 ± 9 ng/mL and the “Tmax” value stood at 2 ± 0 h. In addition, in data set [3] (i.g. 5 mg/kg vs i.v. 1 mg/kg), the “F (%)” value came to 20.4%. Besides, in data set [3] (i.v. 1 mg/kg), the “AUC0→t” value was 47.2 ± 1.8 ng·h/mL, the “AUC0→∞” value stood at 49.8 ± 1.5 ng·h/mL, the “MRTINF” value is on record as 1.46 ± 0.027 h and the “T1/2” value stood at 1.21 h.
